Solubility data for two compounds are collected here from ChEMBL document CHEMBL1145221, “2,3-Diphenylpropionic acids as potent VLA-4 antagonists” (Bioorg Med Chem Lett, 2005).

A short description of this series: physchem. Particulars: water.

Structures are written as SMILES. Converted amounts (≈) assume the structure as drawn.

`Cc1cccc(Br)c1C(=O)N[C@@H](Cc1ccc(NC(=O)c2c(Cl)cccc2Cl)cc1)C(=O)O`: the solubility – broadly, the concentration that dissolves in the medium under given conditions – amounted to 330 µg/mL (≈ 600 µM).

The compound `COc1cccc(OC)c1-c1ccc(C[C@H](NC(=O)c2c(Cl)cccc2Cl)C(=O)O)cc1` registered a solubility of 219 µg/mL (≈ 462 µM).
